According to patent US7118895B2, “Process for producing aglycon by using diglycosidase and flavor-improved food containing the aglycon and converting agent to be used in the process” (Amano Enzyme Inc., priority 2000, dated 2006):

System: Crude diglycosidase
Experiment: Examination of pH in the conversion into isoflavone aglycons by diglycosidase using soybean materials
Assay type: biochemical, Penicillium multicolor IAM7153
Settings: for Decomposition efficiency of glycitin family in roasted soy flour / Decomposition efficiency of glycitin family in soymilk: 55° C.
Description: A substrate solution of 450 μL was prepared by suspending 50 mg of each soybean material (roasted soy flour (manufactured by Fuji Shokuryo K.K.), soymilk (manufactured by Gitoh Shokuhin K.K.), defatted soybean (manufactured by Fuji Seiyu K.K.), concentrated soybean protein (manufactured by Fuji Seiyu K.K.)), and adjusting the pH to 2 to 11 with hydrochloric acid or sodium hydroxide. Each enzyme solution of pH 2–11 wherein diglycosidase activity of crude diglycosidase was adjusted to 1.88 AU/mL was added thereto in an amount of 50 μL and the whole was reacted at 55° C. at the total volume of 500 μL. To the reaction mixture was added 700 μL of ethanol after 0, 1, 3, and 6 hours of the reaction. After stirring and ultrasonication, the mixture was subjected to centrifugal separation at 15,000 rpm and 4° C. for 10 minutes. The supernatant was filtered through a filter and the existence of isoflavone glycosides and aglycon isoflavones contained in the reaction mixture was detected by HLPC (Tables 15 to 26).

[1] = pH6.6, heat treatment of enzyme: no, reaction time 0 h
[2] = pH6.6, heat treatment of enzyme: no, reaction time 1 h
[3] = pH6.6, heat treatment of enzyme: no, reaction time 3 h
[4] = pH6.6, heat treatment of enzyme: no, reaction time 6 h
[5] = pH6.6, heat treatment of enzyme: yes, reaction time 6 h

COc1cc2c(=O)c(-c3ccc(O)cc3)coc2cc1O[C@@H]1O[C@H](COC(C)=O)[C@@H](O)[C@H](O)[C@H]1O [acetylglycitin, 6″-O-acetylglycitin]
Decomposition efficiency of glycitin family in roasted soy flour (pH5, heat treatment of enzyme no, reaction time 0 h): 34.8 | Decomposition efficiency of glycitin family in roasted soy flour (pH5, heat treatment of enzyme no, reaction time 1 h): 22.9 | Decomposition efficiency of glycitin family in roasted soy flour (pH5, heat treatment of enzyme no, reaction time 3 h): 6.5 | Decomposition efficiency of glycitin family in roasted soy flour (pH5, heat treatment of enzyme no, reaction time 6 h): not detected | Decomposition efficiency of glycitin family in roasted soy flour (pH5, heat treatment of enzyme yes, reaction time 6 h): 35.2 | Decomposition efficiency of glycitin family in concentrated soybean protein (pH5.1, heat treatment of enzyme: no, reaction time 0 h): 36.1% | Decomposition efficiency of glycitin family in concentrated soybean protein (pH5.1, heat treatment of enzyme: no, reaction time 1 h): 33.2% | Decomposition efficiency of glycitin family in concentrated soybean protein (pH5.1, heat treatment of enzyme: no, reaction time 3 h): 26.0% | Decomposition efficiency of glycitin family in concentrated soybean protein (pH5.1, heat treatment of enzyme: no, reaction time 6 h): 21.0% | Decomposition efficiency of glycitin family in concentrated soybean protein (pH5.1, heat treatment of enzyme: yes, reaction time 6 h): 35.8% | Decomposition efficiency of glycitin family in defatted soybean (pH5.4, heat treatment of enzyme: no, reaction time 0 h): not detected | Decomposition efficiency of glycitin family in defatted soybean (pH5.4, heat treatment of enzyme: no, reaction time 1 h): not detected | Decomposition efficiency of glycitin family in defatted soybean (pH5.4, heat treatment of enzyme: no, reaction time 3 h): not detected | Decomposition efficiency of glycitin family in defatted soybean (pH5.4, heat treatment of enzyme: no, reaction time 6 h): not detected | Decomposition efficiency of glycitin family in defatted soybean (pH5.4, heat treatment of enzyme: yes, reaction time 6 h): not detected | Decomposition efficiency of glycitin family in soymilk (pH6.2, heat treatment of enzyme no, reaction time 0 h): not detected | Decomposition efficiency of glycitin family in soymilk (pH6.2, heat treatment of enzyme no, reaction time 1 h): not detected | Decomposition efficiency of glycitin family in soymilk (pH6.2, heat treatment of enzyme no, reaction time 3 h): not detected | Decomposition efficiency of glycitin family in soymilk (pH6.2, heat treatment of enzyme no, reaction time 6 h): not detected | Decomposition efficiency of glycitin family in soymilk (pH6.2, heat treatment of enzyme yes, reaction time 6 h): not detected | Decomposition efficiency of glycitin family in roasted soy flour (pH6.5, heat treatment of enzyme no, reaction time 0 h): 35.4 | Decomposition efficiency of glycitin family in roasted soy flour (pH6.5, heat treatment of enzyme no, reaction time 1 h): 35.0 | Decomposition efficiency of glycitin family in roasted soy flour (pH6.5, heat treatment of enzyme no, reaction time 3 h): 19.7 | Decomposition efficiency of glycitin family in roasted soy flour (pH6.5, heat treatment of enzyme no, reaction time 6 h): 11.9 | Decomposition efficiency of glycitin family in roasted soy flour (pH6.5, heat treatment of enzyme yes, reaction time 6 h): 35.4 | Decomposition efficiency of glycitin family in concentrated soybean protein [1]: 36.1% | Decomposition efficiency of glycitin family in defatted soybean [1]: not detected | Decomposition efficiency of glycitin family in concentrated soybean protein [2]: 34.8% | Decomposition efficiency of glycitin family in defatted soybean [2]: not detected | Decomposition efficiency of glycitin family in concentrated soybean protein [3]: 32.4% | Decomposition efficiency of glycitin family in defatted soybean [3]: not detected | Decomposition efficiency of glycitin family in concentrated soybean protein [4]: 29.5% | Decomposition efficiency of glycitin family in defatted soybean [4]: not detected | Decomposition efficiency of glycitin family in concentrated soybean protein [5]: 35.2% | Decomposition efficiency of glycitin family in defatted soybean [5]: not detected | Decomposition efficiency of glycitin family in soymilk (pH7.2, heat treatment of enzyme no, reaction time 0 h): not detected | Decomposition efficiency of glycitin family in soymilk (pH7.2, heat treatment of enzyme no, reaction time 1 h): not detected | Decomposition efficiency of glycitin family in soymilk (pH7.2, heat treatment of enzyme no, reaction time 3 h): not detected | Decomposition efficiency of glycitin family in soymilk (pH7.2, heat treatment of enzyme no, reaction time 6 h): not detected | Decomposition efficiency of glycitin family in soymilk (pH7.2, heat treatment of enzyme yes, reaction time 6 h): not detected | Decomposition efficiency of glycitin family in defatted soybean (pH7.8, heat treatment of enzyme: no, reaction time 0 h): not detected | Decomposition efficiency of glycitin family in defatted soybean (pH7.8, heat treatment of enzyme: no, reaction time 1 h): not detected | Decomposition efficiency of glycitin family in defatted soybean (pH7.8, heat treatment of enzyme: no, reaction time 3 h): not detected | Decomposition efficiency of glycitin family in defatted soybean (pH7.8, heat treatment of enzyme: no, reaction time 6 h): not detected | Decomposition efficiency of glycitin family in defatted soybean (pH7.8, heat treatment of enzyme: yes, reaction time 6 h): not detected | Decomposition efficiency of glycitin family in roasted soy flour (pH8.5, heat treatment of enzyme no, reaction time 0 h): 31.0 | Decomposition efficiency of glycitin family in roasted soy flour (pH8.5, heat treatment of enzyme no, reaction time 1 h): 32.4 | Decomposition efficiency of glycitin family in roasted soy flour (pH8.5, heat treatment of enzyme no, reaction time 3 h): 30.6 | Decomposition efficiency of glycitin family in roasted soy flour (pH8.5, heat treatment of enzyme no, reaction time 6 h): 30.2 | Decomposition efficiency of glycitin family in roasted soy flour (pH8.5, heat treatment of enzyme yes, reaction time 6 h): 31.7 | Decomposition efficiency of glycitin family in concentrated soybean protein (pH8.6, heat treatment of enzyme: no, reaction time 0 h): 33.0% | Decomposition efficiency of glycitin family in concentrated soybean protein (pH8.6, heat treatment of enzyme: no, reaction time 1 h): 32.6% | Decomposition efficiency of glycitin family in concentrated soybean protein (pH8.6, heat treatment of enzyme: no, reaction time 3 h): 32.6% | Decomposition efficiency of glycitin family in concentrated soybean protein (pH8.6, heat treatment of enzyme: no, reaction time 6 h): 32.0% | Decomposition efficiency of glycitin family in concentrated soybean protein (pH8.6, heat treatment of enzyme: yes, reaction time 6 h): 31.6% | Decomposition efficiency of glycitin family in soymilk (pH11.6, heat treatment of enzyme no, reaction time 0 h): not detected | Decomposition efficiency of glycitin family in soymilk (pH11.6, heat treatment of enzyme no, reaction time 1 h): not detected | Decomposition efficiency of glycitin family in soymilk (pH11.6, heat treatment of enzyme no, reaction time 3 h): not detected | Decomposition efficiency of glycitin family in soymilk (pH11.6, heat treatment of enzyme no, reaction time 6 h): not detected | Decomposition efficiency of glycitin family in soymilk (pH11.6, heat treatment of enzyme yes, reaction time 6 h): not detected
